According to PMC4481167, “The primary pathway for lactate oxidation in Desulfovibrio vulgaris” (Frontiers in Microbiology, 2015):

Target: T1, PFOR (DVU3025, por) (Nitratidesulfovibrio vulgaris, UniProt Q726T1)
T1 construct: native, untagged; in-gel activity band from crude extract identified by LC-MS/MS; homo-octamer (cited)
Assay: in-gel activity stain (methyl viologen), band identified by LC-MS/MS
Assay type: biochemical
Settings: 20 mM pyruvate, 0.1 mM CoA, 2 mM methyl viologen, 16 mM dithioerythritol, 50 mM Tris-HCl pH 8.5, anaerobic

T1 sequence (Q726T1 1-1215): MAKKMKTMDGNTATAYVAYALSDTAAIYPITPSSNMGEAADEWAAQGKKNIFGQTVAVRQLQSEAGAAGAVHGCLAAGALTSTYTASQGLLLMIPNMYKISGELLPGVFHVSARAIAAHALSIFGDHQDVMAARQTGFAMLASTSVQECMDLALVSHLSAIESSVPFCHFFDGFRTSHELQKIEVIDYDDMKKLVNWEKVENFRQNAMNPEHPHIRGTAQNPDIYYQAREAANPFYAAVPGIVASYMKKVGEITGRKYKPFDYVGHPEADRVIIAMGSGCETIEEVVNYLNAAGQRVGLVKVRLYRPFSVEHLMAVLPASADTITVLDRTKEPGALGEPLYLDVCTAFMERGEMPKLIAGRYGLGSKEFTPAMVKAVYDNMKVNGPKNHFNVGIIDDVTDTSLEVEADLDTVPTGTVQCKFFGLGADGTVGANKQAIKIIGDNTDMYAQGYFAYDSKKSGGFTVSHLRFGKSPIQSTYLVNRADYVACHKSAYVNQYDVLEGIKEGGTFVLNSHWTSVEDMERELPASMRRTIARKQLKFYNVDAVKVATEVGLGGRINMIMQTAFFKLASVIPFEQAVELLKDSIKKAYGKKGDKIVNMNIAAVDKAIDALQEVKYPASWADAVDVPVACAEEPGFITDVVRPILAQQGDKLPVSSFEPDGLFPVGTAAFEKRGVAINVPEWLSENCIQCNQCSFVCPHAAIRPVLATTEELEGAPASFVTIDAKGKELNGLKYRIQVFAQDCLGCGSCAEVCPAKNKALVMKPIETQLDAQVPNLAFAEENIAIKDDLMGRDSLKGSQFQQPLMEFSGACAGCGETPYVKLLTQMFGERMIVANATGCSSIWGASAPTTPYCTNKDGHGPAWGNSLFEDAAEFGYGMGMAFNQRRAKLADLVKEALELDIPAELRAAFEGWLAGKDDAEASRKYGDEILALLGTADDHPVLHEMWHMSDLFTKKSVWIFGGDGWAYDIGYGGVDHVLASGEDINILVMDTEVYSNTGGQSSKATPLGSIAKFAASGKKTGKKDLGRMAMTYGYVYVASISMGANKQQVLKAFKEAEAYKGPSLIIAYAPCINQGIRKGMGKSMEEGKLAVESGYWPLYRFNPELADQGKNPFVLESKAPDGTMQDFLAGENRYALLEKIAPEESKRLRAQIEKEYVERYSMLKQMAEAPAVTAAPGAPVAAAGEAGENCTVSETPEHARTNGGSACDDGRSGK

Structure (SMILES): CC(=O)C(=O)O [pyruvate]
- in-gel activity stain (methyl viologen), band identified by LC-MS/MS: Two bands were stained with methyl viologen in the presence of pyruvate and CoA

Structure (SMILES): CC(C)(COP(=O)(O)OP(=O)(O)OC[C@H]1O[C@@H](n2cnc3c(N)ncnc32)[C@H](O)[C@@H]1OP(=O)(O)O)[C@@H](O)C(=O)NCCC(=O)NCCS [CoA]
- in-gel activity stain (methyl viologen), band identified by LC-MS/MS: Two bands were stained with methyl viologen in the presence of pyruvate and CoA
